Measured values published in US6518243B1, “Desleucyl glycopeptide antibiotics and methods of making same” (Trustees of Princeton University, priority 1999, dated 2003).

Tests used:
[1] = test system: S. Aureus ATCC 33591; experiment: MIC determination in BHI media, OD600; type: cell-based; conditions: BHI + 0.1% casamino acids, 18 hours at 37° C., ≧90% OD600 inhibition
Description: (§1) Logarithmically growing cells were diluted to approximately 5×10^5 CFU/ml and subjected to test compounds solubilized and serially diluted in DMSO. […] After 18 hours at 37° C., the OD600 was determined by reading the ninety-six well microtiter plates on a microplate reader. For a given concentration, an MIC determination was made if: […]

[2] = test system: E. faecium CL 4931; experiment: MIC determination in BHI media, OD600; type: cell-based; conditions: BHI + 0.1% casamino acids, 18 hours at 37° C., ≧90% OD600 inhibition
Description: as §1

[3] = test system: S aureus ATCC 29213; experiment: MIC determination in BHI media, OD600; type: cell-based; conditions: BHI + 0.1% casamino acids, 18 hours at 37° C., ≧90% OD600 inhibition
Description: as §1

[4] = test system: S. aureus (ATCC 29213); experiment: Zone of inhibition screen, 96 well agar array format; type: cell-based; set-up: scale not given here
Method in brief: (§2)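 Read-out is antibacterial activity on agar laid out as a 96-well array; every compound went through all strains of the panel.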

[5] = test system: E. faecalis (CL 4877); experiment: as above; type: cell-based; set-up: scale not given here
Method in brief: as §2

[6] = test system: E. faceium (ATCC 49624); experiment: as above; type: cell-based, E. faecium; conditions: zone of inhibition relative to 1 mg/ml stock solution of p-chlorobiphenylvancomycin;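 further: score 3 means fourfold and score 4 sixteenfold the reference zone size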
Description: The antibacterial activity of each of the compounds against the bacterial strains E. faceium (ATCC 49624), S. epidermidis (ATCC 12228), S. aureus (ATCC 29213), E. faecalis (CL 4877) and E. faecalis (ATCC 292121) was tested. Each of the compounds was screened in a 96 will agar array format.

[7] = test system: E. faecium ATCC 49624; experiment: MIC determination in BHI media, OD600; type: cell-based; conditions: BHI + 0.1% casamino acids, 18 hours at 37° C., ≧90% OD600 inhibition
Description: as §1

[8] = test system: S. epidermidis (ATCC 12228); experiment: Zone of inhibition screen, 96 well agar array format; type: cell-based; set-up: scale not given here
Method in brief: as §2

[9] = zone of inhibition relative to 1 mg/ml stock solution of p-chlorobiphenylvancomycin
[10] = zone of inhibition relative to 1 mg/ml p-chlorobiphenylvancomycin

Row | MIC S. aureus ATCC 33591 [1] | MIC E. faecium CL 4931 [2] | MIC S. aureus ATCC 29213 [3] | MIC E. faecium ATCC 49624 [7] | Structure (SMILES) | further results
1 | 0.78 µg/mL | > 25 µg/mL | 0.78 µg/mL | – | C[C@H]1O[C@H](O[C@H]2[C@H](Oc3c4cc5cc3Oc3ccc(cc3Cl)[C@@H](O)[C@@H](NC(=O)[C@@H](N)CCC(=O)OCc3ccccc3)C(=O)N[C@@H](CC(N)=O)C(=O)N[C@H]5C(=O)N[C@H]3C(=O)N[C@H](C(=O)N[C@@H](C(=O)O)c5cc(O)cc(O)c5-c5cc3ccc5O)[C@H](O)c3ccc(c(Cl)c3)O4)O[C@H](CO)[C@@H](O)[C@@H]2O)C[C@@](C)(NCc2ccc(-c3ccc(Cl)cc3)cc2)[C@H]1O [Compound 26] | zone score, S. aureus ATCC 29213 [4, 9]: 2; zone score, E. faecalis CL 4877 [5, 9]: 2
2 | 0.78 µg/mL | – | 0.78 µg/mL | 0.78 µg/mL | CC(C)CC(N)C(=O)NC1C(=O)NC(CC(N)=O)C(=O)NC2C(=O)NC3C(=O)NC(C(=O)NC(C(=O)O)c4cc(O)cc(O)c4-c4cc3ccc4O)C(O)c3ccc(c(Cl)c3)Oc3cc2cc(c3OC2OC(CO)C(O)C(O)C2OC2CC(C)(NCc3ccc(-c4ccc(Cl)cc4)cc3)C(O)C(C)O2)Oc2ccc(cc2Cl)C1O (stereo not drawn) [Compound 38] | zone score, E. faecium ATCC 49624 [6]: 2; zone score, S. aureus ATCC 29213 [4, 9]: 2
3 | 0.78 µg/mL | 25 µg/mL | 0.78 µg/mL | 0.78 µg/mL | CC1OC(OC2C(Oc3c4cc5cc3Oc3ccc(cc3Cl)C(O)C3NC(=O)C(NC(=O)C5NC(=O)C(CC(N)=O)NC(=O)C(NC(=O)C(N)CO)C(O)c5ccc(c(Cl)c5)O4)c4ccc(O)c(c4)-c4c(O)cc(O)cc4C(C(=O)O)NC3=O)OC(CO)C(O)C2O)CC(C)(NCc2ccc(-c3ccc(Cl)cc3)cc2)C1O (stereo not drawn) [Compound 63] | zone score, S. aureus ATCC 29213 [4, 9]: 2; zone score, E. faecalis CL 4877 [5, 9]: 2
4 | 0.78 µg/mL | – | 0.78 µg/mL | 0.39 µg/mL | CC1OC(OC2C(Oc3c4cc5cc3Oc3ccc(cc3Cl)C(O)C3NC(=O)C(NC(=O)C5NC(=O)C(CC(N)=O)NC(=O)C(NC(=O)CNC(=O)CN)C(O)c5ccc(c(Cl)c5)O4)c4ccc(O)c(c4)-c4c(O)cc(O)cc4C(C(=O)O)NC3=O)OC(CO)C(O)C2O)CC(C)(NCc2ccc(-c3ccc(Cl)cc3)cc2)C1O (stereo not drawn) [Compound 68] | zone score, E. faecium ATCC 49624 [6]: 2
5 | – | > 25 µg/mL | – | 0.39 µg/mL | CC1OC(OC2C(Oc3c4cc5cc3Oc3ccc(cc3Cl)C(O)C3NC(=O)C(NC(=O)C5NC(=O)C(CC(N)=O)NC(=O)C(NC(=O)C(CC(N)=O)NC(=O)OC(C)(C)C)C(O)c5ccc(c(Cl)c5)O4)c4ccc(O)c(c4)-c4c(O)cc(O)cc4C(C(=O)O)NC3=O)OC(CO)C(O)C2O)CC(C)(NCc2ccc(-c3ccc(Cl)cc3)cc2)C1O (stereo not drawn) [Compound 135] | zone score, S. aureus ATCC 29213 [4, 9]: 2; zone score, S. epidermidis ATCC 12228 [8, 9]: 2
6 | – | 25 µg/mL | – | – | COCC(=O)NC1C(=O)NC(CC(N)=O)C(=O)NC2C(=O)NC3C(=O)NC(C(=O)NC(C(=O)O)c4cc(O)cc(O)c4-c4cc3ccc4O)C(O)c3ccc(c(Cl)c3)Oc3cc2cc(c3OC2OC(CO)C(O)C(O)C2OC2CC(C)(NCc3ccc(-c4ccc(Cl)cc4)cc3)C(O)C(C)O2)Oc2ccc(cc2Cl)C1O (stereo not drawn) [Compound 303] | zone score, S. epidermidis ATCC 12228 [8, 10]: 2
7 | – | 25 µg/mL | – | – | CC1OC(OC2C(Oc3c4cc5cc3Oc3ccc(cc3Cl)C(O)C3NC(=O)C(NC(=O)C5NC(=O)C(CC(N)=O)NC(=O)C(NC(=O)C(N)CSCc5ccccc5)C(O)c5ccc(c(Cl)c5)O4)c4ccc(O)c(c4)-c4c(O)cc(O)cc4C(C(=O)O)NC3=O)OC(CO)C(O)C2O)CC(C)(NCc2ccc(-c3ccc(Cl)cc3)cc2)C1O (stereo not drawn) [Compound 332] | –
8 | 0.78 µg/mL | 25 µg/mL | 0.78 µg/mL | 0.39 µg/mL | CC1OC(OC2C(Oc3c4cc5cc3Oc3ccc(cc3Cl)C(O)C3NC(=O)C(NC(=O)C5NC(=O)C(CC(N)=O)NC(=O)C(NC(=O)C(N)COCc5ccccc5)C(O)c5ccc(c(Cl)c5)O4)c4ccc(O)c(c4)-c4c(O)cc(O)cc4C(C(=O)O)NC3=O)OC(CO)C(O)C2O)CC(C)(NCc2ccc(-c3ccc(Cl)cc3)cc2)C1O (stereo not drawn) [Compound 342] | –
9 | 0.78 µg/mL | 25 µg/mL | – | 0.39 µg/mL | CNC(COC(C)(C)C)C(=O)NC1C(=O)NC(CC(N)=O)C(=O)NC2C(=O)NC3C(=O)NC(C(=O)NC(C(=O)O)c4cc(O)cc(O)c4-c4cc3ccc4O)C(O)c3ccc(c(Cl)c3)Oc3cc2cc(c3OC2OC(CO)C(O)C(O)C2OC2CC(C)(NCc3ccc(-c4ccc(Cl)cc4)cc3)C(O)C(C)O2)Oc2ccc(cc2Cl)C1O (stereo not drawn) [Compound 343] | –
10 | – | 25 µg/mL | – | 0.78 µg/mL | CC(OC(C)(C)C)C(N)C(=O)NC1C(=O)NC(CC(N)=O)C(=O)NC2C(=O)NC3C(=O)NC(C(=O)NC(C(=O)O)c4cc(O)cc(O)c4-c4cc3ccc4O)C(O)c3ccc(c(Cl)c3)Oc3cc2cc(c3OC2OC(CO)C(O)C(O)C2OC2CC(C)(NCc3ccc(-c4ccc(Cl)cc4)cc3)C(O)C(C)O2)Oc2ccc(cc2Cl)C1O (stereo not drawn) [Compound 344] | –
11 | 0.78 µg/mL | 25 µg/mL | 0.78 µg/mL | 0.39 µg/mL | CC1OC(OC2C(Oc3c4cc5cc3Oc3ccc(cc3Cl)C(O)C3NC(=O)C(NC(=O)C5NC(=O)C(CC(N)=O)NC(=O)C(NC(=O)C(N)CSSC(C)(C)C)C(O)c5ccc(c(Cl)c5)O4)c4ccc(O)c(c4)-c4c(O)cc(O)cc4C(C(=O)O)NC3=O)OC(CO)C(O)C2O)CC(C)(NCc2ccc(-c3ccc(Cl)cc3)cc2)C1O (stereo not drawn) [Compound 345] | –
12 | 0.39 µg/mL | 25 µg/mL | 0.39 µg/mL | 0.25 µg/mL | CCOCC(N)C(=O)NC1C(=O)NC(CC(N)=O)C(=O)NC2C(=O)NC3C(=O)NC(C(=O)NC(C(=O)O)c4cc(O)cc(O)c4-c4cc3ccc4O)C(O)c3ccc(c(Cl)c3)Oc3cc2cc(c3OC2OC(CO)C(O)C(O)C2OC2CC(C)(NCc3ccc(-c4ccc(Cl)cc4)cc3)C(O)C(C)O2)Oc2ccc(cc2Cl)C1O (stereo not drawn) [Compound 524] | –
13 | 0.39 µg/mL | 25 µg/mL | 0.39 µg/mL | 0.25 µg/mL | CCOCC(NC)C(=O)NC1C(=O)NC(CC(N)=O)C(=O)NC2C(=O)NC3C(=O)NC(C(=O)NC(C(=O)O)c4cc(O)cc(O)c4-c4cc3ccc4O)C(O)c3ccc(c(Cl)c3)Oc3cc2cc(c3OC2OC(CO)C(O)C(O)C2OC2CC(C)(NCc3ccc(-c4ccc(Cl)cc4)cc3)C(O)C(C)O2)Oc2ccc(cc2Cl)C1O (stereo not drawn) [Compound 527] | –

Row | Structure (SMILES) | MIC S. aureus ATCC 33591 [1] | MIC E. faecium CL 4931 [2] | MIC S. aureus ATCC 29213 [3] | MIC E. faecium ATCC 49624 [7] | further results
14 | CC1OC(OC2C(Oc3c4cc5cc3Oc3ccc(cc3Cl)C(O)C3NC(=O)C(NC(=O)C5NC(=O)C(CC(N)=O)NC(=O)C(NC(=O)C(N)CCC(N)=O)C(O)c5ccc(c(Cl)c5)O4)c4ccc(O)c(c4)-c4c(O)cc(O)cc4C(C(=O)O)NC3=O)OC(CO)C(O)C2O)CC(C)(NCc2ccc(-c3ccc(Cl)cc3)cc2)C1O (stereo not drawn) [Compound 91] | 0.78 µg/mL | 25 µg/mL | 0.78 µg/mL | 0.78 µg/mL | zone score, S. epidermidis ATCC 12228 [8, 9]: 2
15 | CCOCC(=O)NC1C(=O)NC(CC(N)=O)C(=O)NC2C(=O)NC3C(=O)NC(C(=O)NC(C(=O)O)c4cc(O)cc(O)c4-c4cc3ccc4O)C(O)c3ccc(c(Cl)c3)Oc3cc2cc(c3OC2OC(CO)C(O)C(O)C2OC2CC(C)(NCc3ccc(-c4ccc(Cl)cc4)cc3)C(O)C(C)O2)Oc2ccc(cc2Cl)C1O (stereo not drawn) [Compound 287] | – | 25 µg/mL | – | – | zone score, S. aureus ATCC 29213 [4, 10]: 2; zone score, E. faecalis CL 4877 [5, 10]: 2; zone score, S. epidermidis ATCC 12228 [8, 10]: 2
